Where two headings read alike, the source gives them in different places.
What was measured:
[1] = test system: rabbit hearts; experiment: Rabbit heart regional ischemia/reperfusion, infarct size as percentage of risk zone; format: in vivo, New Zealand White rabbits; details: ischemia alone, FIG. 9
Procedure: New Zealand White rabbits of either sex weighing nearly 3 Kg were anesthetized with intravenous sodium pentobarbital (30 mg/kg). Throughout the experiment, additional anesthesia was administered as needed (5-15 mg pentobarbital/15 min) A heating pad maintained rectal temperature between 38.5 and 39.5-C. Animals were intubated through a tracheotomy and ventilated with 100% O2 with the aid of a mechanical ventilator. To administer drugs, a PE 50 catheter filled with heparinized saline was placed in an ear vein. After a left thoractomy, a prominent branch of the left coronary artery was surrounded with a suture (2-0 silk) to form a snare. The rabbits were allowed to stabilize for 15 min after surgery before the protocols were begun. […] The coronary artery was re-occluded, and […] diameter green fluorescent microspheres (Duke Scientific Corp., Palo Alto, Calif.) were infused into the perfusate to demarcate the ischemic zone as the area of tissue without fluorescence (region at risk). […] The areas of infarct and risk zone were determined by planimetry of each slice and volumes were calculated by multiplying each area by its slice thickness and summing them for each heart. Infarct size is expressed as a percentage of the risk zone. […] All data are expressed as mean TS.E.M. One-way analysis of variance (ANOVA) combined with Tukey's posthoc test was performed on baseline hemodynamic and infarct data. […]

[2] = test system: HL-60 human promyelocytic leukemia cells; details: cited from earlier work
[3] = test system: rabbit heart; details: application after the onset of cardiac ischemia, rabbit infarct model; cited from earlier work

SMILES: CCNC(=O)[C@H]1O[C@@H](n2cnc3c(N)ncnc32)[C@H](O)[C@@H]1O [NECA, 5′-N-ethylcarboxamidoadenosine]
- protection (inhibition of infarct size) [1]: 50%

SMILES: CNC(=O)[C@H]1O[C@@H](n2cnc3c(NCc4cccc(I)c4)ncnc32)[C@H](O)[C@@H]1O [IB-MECA]
- apoptosis in HL-60 cells ([2]; 30 and 60 μM): induced apoptosis

SMILES: N#Cc1c(N)nc(SCC(N)=O)c(C#N)c1-c1ccc(OCC2CC2)cc1 [BAY-60-6583]
- reduction of the infarct size [3]: effective

SMILES: CNC(=O)[C@H]1O[C@@H](n2cnc3c(NCc4cccc(I)c4)nc(Cl)nc32)[C@H](O)[C@@H]1O [C1-IB-MECA]
- apoptosis in HL-60 cells, low concentrations ([2]; 10 nM or 1 μM): protected against
- apoptosis in HL-60 cells ([2]; 10-30 μM): induced apoptosis

— patent US20110262456A1, “METHOD OF TREATING ISCHEMIA REPERFUSION INJURY” (priority 2008, published 2011)
